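Each compound was tested at five concentrations against cells in 96-well plates for 48 hours. Here, GI50 denotes the concentration required for 50% inhibition of growth. TGI marks complete inhibition of growth.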
What was measured:
Assay in all cases: inhibition of tumour cell growth, NCI panel, 48 h
A498 renal = tested on: A498 renal
A549 NSCLC = tested on: A549 NSCLC
HL-60(TB) leukemia = tested on: HL-60(TB) leukemia
K-562 leukemia = tested on: K-562 leukemia
M14 melanoma = tested on: M14 melanoma
PC-3 prostate = tested on: PC-3 prostate
RXF 393 renal = tested on: RXF 393 renal
SK-OV-3 ovarian = tested on: SK-OV-3 ovarian
SN12C renal = tested on: SN12C renal
U251 CNS = tested on: U251 CNS

Cc1cnc(C(=O)Nc2nc3ccc(S(=O)(=O)Nc4ccc(C(C)(C)C)cc4)cc3[nH]2)cn1
GI50 (A498 renal): 288 nM | TGI (A498 renal): 1310 nM | GI50 (A549 NSCLC): 652 nM | TGI (A549 NSCLC): 9140 nM | GI50 (HL-60(TB) leukemia): 304 nM | TGI (HL-60(TB) leukemia): 1070 nM | GI50 (K-562 leukemia): 314 nM | TGI (K-562 leukemia): 5710 nM | GI50 (M14 melanoma): 384 nM | TGI (M14 melanoma): 4430 nM | GI50 (PC-3 prostate): 402 nM | TGI (PC-3 prostate): 8310 nM | GI50 (RXF 393 renal): 312 nM | TGI (RXF 393 renal): 1860 nM | GI50 (SK-OV-3 ovarian): 1090 nM | TGI (SK-OV-3 ovarian): 17100 nM | GI50 (SN12C renal): 592 nM | TGI (SN12C renal): 13300 nM | GI50 (U251 CNS): 648 nM | TGI (U251 CNS): 9990 nM

N#Cc1cnn(C(=O)c2nn(-c3ccc(Cl)cc3)cc2O)c1N
GI50 (A498 renal): 174 nM | TGI (A498 renal): 626 nM | GI50 (A549 NSCLC): 201 nM | TGI (A549 NSCLC): 16500 nM | GI50 (HL-60(TB) leukemia): 354 nM | TGI (HL-60(TB) leukemia): 2270 nM | GI50 (K-562 leukemia): 253 nM | GI50 (M14 melanoma): 462 nM | TGI (M14 melanoma): 8010 nM | GI50 (PC-3 prostate): 322 nM | TGI (PC-3 prostate): 7280 nM | GI50 (RXF 393 renal): 161 nM | TGI (RXF 393 renal): 3910 nM | GI50 (SK-OV-3 ovarian): 521 nM | TGI (SK-OV-3 ovarian): 11300 nM | GI50 (SN12C renal): 342 nM | TGI (SN12C renal): 17500 nM | GI50 (U251 CNS): 284 nM | TGI (U251 CNS): 20600 nM

COc1cc(OC)c(/C=C/S(=O)(=O)Cc2ccc(OC)c(N)n2)c(OC)c1
GI50 (A498 renal): < 10 nM | GI50 (A549 NSCLC): < 10 nM | TGI (A549 NSCLC): > 100000 nM | GI50 (HL-60(TB) leukemia): < 10 nM | TGI (HL-60(TB) leukemia): < 27.3 nM | GI50 (K-562 leukemia): < 10 nM | TGI (K-562 leukemia): > 100000 nM | GI50 (M14 melanoma): < 10 nM | TGI (M14 melanoma): > 100000 nM | GI50 (PC-3 prostate): < 10 nM | TGI (PC-3 prostate): > 100000 nM | GI50 (RXF 393 renal): < 10 nM | TGI (RXF 393 renal): > 100000 nM | GI50 (SK-OV-3 ovarian): < 10 nM | TGI (SK-OV-3 ovarian): > 100000 nM | GI50 (SN12C renal): < 17.1 nM | TGI (SN12C renal): > 100000 nM | GI50 (U251 CNS): < 10 nM | TGI (U251 CNS): > 100000 nM
